Test results as given in patent publication US7601716B2, “Pyridopyrazines and derivatives thereof as ALK and c-Met inhibitors” (Cephalon, Inc., priority 2006, dated 2009).

Tests used:
[1] = target: baculovirus-expressed ALK (Homo sapiens, UniProt Q9UM73); assay: ALK Kinase Assay (ELISA/TRF, PLC-γ substrate); assay type: biochemical; conditions: read-out: ALK Kinase Inhibition (IC50); further: 1 µM ATP (Km level)
Outline: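 IC50 values fitted by nonlinear sigmoidal regression (variable slope) of percent inhibition against log compound concentration. Read-out was TRF of Eu-N1 anti-phosphotyrosine antibody bound to phosphorylated, plate-coated GST-PLC-γ (10 µg/mL). Kinase reaction used ALK at 30 ng/ml for 15 min at 37 °C.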

[2] = target: T1, c-Met (phospho-c-Met) in A549 cells (Homo sapiens, UniProt P08581); assay: c-Met Cellular Activity/Autophosphorylation Assay, A549 cells (HGF stimulated); assay type: cell-based; conditions: 50 ng/mL HGF; for inhibition at 1 µM: 1 μM compound, read-out: c-Met autophosphorylation inhibition score, A549 Cells (1 μM); for inhibition at 3 µM: 3 μM compound, read-out: c-Met autophosphorylation inhibition score, A549 Cells (3 μM)
T1 construct: endogenous in cells; host or cells: HT29, A549 (HGF-stimulated), GTL-16
Protocol: (§1) HT29 and GTL-16 cells were serum starved for one hour in media containing 0.05% BSA and varying concentrations of Example compounds (1-10 μM). A549 cells were serum starved overnight in media containing 0.05% BSA then treated for one hour with Example compounds followed by a 15 minute stimulation with 50 ng/mL HGF (Peprotech, Rocky Hill, N.J.), respectively. Samples were resolved by electrophoresis on a 3-8% Tris-Acetate gel (40 ma/gel) and then transferred to a nitrocellulose membrane. Membranes were blocked for one hour at room temperature in Odyssey Blocking Buffer (Licor #927-40000) diluted 1:1 with 1×TBS. Membranes were then co-incubated overnight at 4° C. with primary antibodies [total Met (Cell Signaling, #3127) and Phospho-Met (Biosource, #44-888G) 1:1000 each in Odyssey Blocking Buffer diluted 1:1 with 1×TBS-T 0.05%]. The next day, membranes were washed and co-incubated with secondary antibodies [Goat anti mouse IRDye800 (Rockland, #610-132-121) and Goat anti rabbit Alexa fluor 700 (Molecular Probes, #A21038) 1:10,000] in Odyssey Blocking Buffer diluted 1:1 with 1×TBS-T 0.05% for one hour at room temperature protected from light. Blots were then washed and read on the Odyssey Infrared Imager. Total c-Met signal was visualized at 800 nm detection and phospho-c-Met signal was visualized at 700 nm detection.

[3] = target: T2, c-Met (cytoplasmic domain) (Homo sapiens, UniProt P08581); assay: c-Met Kinase Assay (ELISA/TRF, PLC-γ substrate); assay type: biochemical; conditions: 3 μM ATP (Km level); read-out: c-Met Kinase Inhibition (IC50)
T2 construct: Reactions were initiated with 30 ng/mL c-Met (cytoplasmic domain, Invitrogen Corporation #PV3143); purchased Invitrogen Corporation PV3143
Outline: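 Readout is TRF of europium anti-phosphotyrosine (PT66) bound to GST–PLC-γ substrate coated at 10 μg/mL, after a 15 min, 37 °C reaction started with 30 ng/mL c-Met cytoplasmic domain. Percent inhibition plotted against log compound concentration and fitted (variable slope) for IC50.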

NPM-ALK = target: T3, NPM-ALK (Homo sapiens, UniProt Q9UM73); assay: ALK Cellular Assay (phospho-NPM-ALK immunoblot / ALK tyrosine phosphorylation ELISA); assay type: cell-based; conditions: for inhibition at 1 µM: NPM-ALK, 1 μM compound, read-out: ALK Cellular Activity Inhibition Score at 1 μM
T3 construct: a fusion protein consisting of nucleophosmin (NMP) and the intracellular domain of ALK; the other entry of the earlier key: NPM1 (P06748, Nucleophosmin)
Protocol: Immunoblotting of phospho-NPM-ALK and total NPM-ALK from cell lysates was carried out according to the protocols provided by the antibody suppliers. In brief, after treatment of Example compounds, cells were lysed in Frak lysis buffer [10 mM Tris, pH 7.5, 1% Triton X-100, 50 mM sodium chloride, 20 mM sodium fluoride, 2 mM sodium pyrophosphate, 0.1% BSA, plus freshly prepared 1 mM activated sodium vanadate, 1 mM dithiothreitol (#165680050, ARCOS Organics, Geel, Belgium), and 1 mM PMSF (#837091, Boehringer Mannheim Biochemicals, Indianapolis, Ind.), protease inhibitors cocktail III (#539134-1Set, Calbiochem, 1:100 dilution)]. After brief sonication, the lysates were cleared by centrifugation, mixed with sample buffer and subjected to SDS-PAGE. Following transfer to membranes, the membranes were blotted with either rabbit phospho-NPM-ALK(Y664) (Cat^#3341) or ALK antibody (Cat^#3342) from Cell Signaling Technology (Beverly, Mass.), and then the HRP-conjugated goat anti-rabbit antibodies (Santa Cruz, Calif.) after washed in TBS/0.2% Tween-20. The protein bands were visualized with ECL Western Blotting detection reagents (RPN2106, Amersham Biosciences, Buckinghamshire, UK) and quantitated with gel-pro analyzer 3.1 software.
To measure ALK tyrosine phosphorylation in cells with an ELISA assay, fluoronunc plates (Cat^#437796, Nalge Nunc, Rochester, N.Y.) were pre-coated with goat anti-mouse IgG, and incubated with the capture mouse ALK antibody (Cat^#35-4300, Zymed, Seattle, Wash.) diluted 1:1000 in Superblock (Pierce, Rockford, Ill.). Following blocking, cell lysates were added to plates and incubated overnight at 4° C. Plates were incubated with the detecting antibody, anti-phospho-ALK (Y664) (Cell Signaling Technology), diluted at 1:2000, followed by incubation with goat anti-rabbit-IgG alkaline phosphatase to amplify the detection. Wells were exposed to the fluorogenic substrate 4-MeUP (#3368-04-5, Calbiochem) and the signal quantified using a CytoFluor® (series 4000) Fluorescence Multi-Well Plate Reader (Applied Biosystems, Foster City, Calif.).

[4] = target: T4, c-Met (phospho-c-Met) in HT29 cells (Homo sapiens, UniProt P08581); assay: c-Met Cellular Activity/Autophosphorylation Assay, HT29 cells; assay type: cell-based; conditions: for inhibition at 1 µM: HT-29, 1 μM compound, read-out: c-Met autophosphorylation inhibition score, HT29 Cells (1 μM); for inhibition at 3 µM: HT-29, 3 μM compound, read-out: c-Met autophosphorylation inhibition score, HT29 Cells (3 μM)
T4 construct: endogenous in cells; host or cells: HT29, A549 (HGF-stimulated), GTL-16
Protocol: as §1

T2 sequence (P08581 956-1390 limits assumed): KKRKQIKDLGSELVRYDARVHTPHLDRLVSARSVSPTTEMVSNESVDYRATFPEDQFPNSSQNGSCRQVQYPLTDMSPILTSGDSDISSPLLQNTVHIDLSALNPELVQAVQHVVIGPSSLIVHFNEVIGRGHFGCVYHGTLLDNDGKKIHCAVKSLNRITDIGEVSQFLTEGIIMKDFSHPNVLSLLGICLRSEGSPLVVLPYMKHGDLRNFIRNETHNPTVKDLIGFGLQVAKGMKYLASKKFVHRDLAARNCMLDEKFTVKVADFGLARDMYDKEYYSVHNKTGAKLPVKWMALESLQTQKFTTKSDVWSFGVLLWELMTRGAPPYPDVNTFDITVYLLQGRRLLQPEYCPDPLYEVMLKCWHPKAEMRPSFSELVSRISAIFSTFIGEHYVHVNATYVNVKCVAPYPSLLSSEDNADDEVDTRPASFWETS
T3 sequence (Q9UM73 with tags, fused parts or gaps): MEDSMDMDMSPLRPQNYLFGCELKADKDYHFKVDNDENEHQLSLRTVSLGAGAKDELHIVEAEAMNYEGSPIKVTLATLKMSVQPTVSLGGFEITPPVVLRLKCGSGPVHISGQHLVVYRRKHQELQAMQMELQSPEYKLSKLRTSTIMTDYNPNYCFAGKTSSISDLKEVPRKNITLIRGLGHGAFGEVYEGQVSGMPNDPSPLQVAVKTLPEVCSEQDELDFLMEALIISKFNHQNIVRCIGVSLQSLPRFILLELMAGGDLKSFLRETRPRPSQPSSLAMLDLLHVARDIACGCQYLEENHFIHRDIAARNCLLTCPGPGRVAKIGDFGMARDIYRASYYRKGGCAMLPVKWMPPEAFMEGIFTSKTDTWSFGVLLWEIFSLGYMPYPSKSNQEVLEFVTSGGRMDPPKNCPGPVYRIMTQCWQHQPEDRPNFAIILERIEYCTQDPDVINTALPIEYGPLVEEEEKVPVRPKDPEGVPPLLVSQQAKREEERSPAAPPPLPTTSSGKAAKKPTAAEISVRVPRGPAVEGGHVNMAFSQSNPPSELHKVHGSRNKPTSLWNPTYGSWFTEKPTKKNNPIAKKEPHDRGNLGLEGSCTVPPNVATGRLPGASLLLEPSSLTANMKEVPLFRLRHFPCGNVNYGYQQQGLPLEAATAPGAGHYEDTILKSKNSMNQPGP
Sequence of baculovirus-expressed ALK (Q9UM73 19-1620): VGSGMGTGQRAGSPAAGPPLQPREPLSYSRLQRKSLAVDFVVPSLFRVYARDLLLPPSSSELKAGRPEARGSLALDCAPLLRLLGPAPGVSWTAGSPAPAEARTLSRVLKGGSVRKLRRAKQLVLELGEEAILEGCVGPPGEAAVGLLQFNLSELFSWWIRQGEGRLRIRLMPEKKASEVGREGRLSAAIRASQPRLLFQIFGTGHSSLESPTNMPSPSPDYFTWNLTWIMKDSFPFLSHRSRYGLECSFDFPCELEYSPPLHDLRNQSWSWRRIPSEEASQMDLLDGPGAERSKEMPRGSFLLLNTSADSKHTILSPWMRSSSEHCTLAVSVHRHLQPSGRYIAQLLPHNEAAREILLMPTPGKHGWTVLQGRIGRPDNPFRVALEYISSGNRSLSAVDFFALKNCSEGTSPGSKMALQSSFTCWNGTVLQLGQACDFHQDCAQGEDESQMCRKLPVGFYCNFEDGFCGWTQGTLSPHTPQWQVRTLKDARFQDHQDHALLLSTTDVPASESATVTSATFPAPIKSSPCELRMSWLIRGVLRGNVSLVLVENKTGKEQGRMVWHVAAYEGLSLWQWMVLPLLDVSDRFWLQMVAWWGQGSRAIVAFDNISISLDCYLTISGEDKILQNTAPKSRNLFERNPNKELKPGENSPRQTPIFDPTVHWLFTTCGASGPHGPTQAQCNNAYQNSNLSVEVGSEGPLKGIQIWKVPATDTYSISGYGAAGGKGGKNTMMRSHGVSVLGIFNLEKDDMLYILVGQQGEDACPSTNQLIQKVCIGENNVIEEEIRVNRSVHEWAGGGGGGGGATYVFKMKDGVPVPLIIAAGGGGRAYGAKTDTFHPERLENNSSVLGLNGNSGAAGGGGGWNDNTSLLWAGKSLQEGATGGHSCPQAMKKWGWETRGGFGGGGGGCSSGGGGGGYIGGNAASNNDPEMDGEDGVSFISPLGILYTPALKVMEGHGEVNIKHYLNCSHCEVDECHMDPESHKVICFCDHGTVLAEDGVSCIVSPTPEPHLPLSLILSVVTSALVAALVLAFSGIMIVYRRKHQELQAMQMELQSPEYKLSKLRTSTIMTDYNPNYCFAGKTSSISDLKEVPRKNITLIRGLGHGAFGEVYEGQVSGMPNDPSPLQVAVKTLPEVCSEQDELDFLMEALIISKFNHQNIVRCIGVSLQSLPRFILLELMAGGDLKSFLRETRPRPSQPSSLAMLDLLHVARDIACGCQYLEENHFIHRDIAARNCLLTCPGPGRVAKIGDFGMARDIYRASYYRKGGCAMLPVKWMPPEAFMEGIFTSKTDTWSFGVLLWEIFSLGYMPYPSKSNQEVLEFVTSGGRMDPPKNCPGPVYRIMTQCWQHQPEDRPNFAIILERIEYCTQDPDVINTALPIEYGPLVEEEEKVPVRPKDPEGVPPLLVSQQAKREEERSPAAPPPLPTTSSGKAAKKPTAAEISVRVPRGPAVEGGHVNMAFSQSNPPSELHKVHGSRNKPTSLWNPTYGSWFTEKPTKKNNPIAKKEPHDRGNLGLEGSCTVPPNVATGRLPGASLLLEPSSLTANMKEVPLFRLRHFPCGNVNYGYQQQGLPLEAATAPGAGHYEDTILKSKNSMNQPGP
T4 sequence (P08581 25-1390): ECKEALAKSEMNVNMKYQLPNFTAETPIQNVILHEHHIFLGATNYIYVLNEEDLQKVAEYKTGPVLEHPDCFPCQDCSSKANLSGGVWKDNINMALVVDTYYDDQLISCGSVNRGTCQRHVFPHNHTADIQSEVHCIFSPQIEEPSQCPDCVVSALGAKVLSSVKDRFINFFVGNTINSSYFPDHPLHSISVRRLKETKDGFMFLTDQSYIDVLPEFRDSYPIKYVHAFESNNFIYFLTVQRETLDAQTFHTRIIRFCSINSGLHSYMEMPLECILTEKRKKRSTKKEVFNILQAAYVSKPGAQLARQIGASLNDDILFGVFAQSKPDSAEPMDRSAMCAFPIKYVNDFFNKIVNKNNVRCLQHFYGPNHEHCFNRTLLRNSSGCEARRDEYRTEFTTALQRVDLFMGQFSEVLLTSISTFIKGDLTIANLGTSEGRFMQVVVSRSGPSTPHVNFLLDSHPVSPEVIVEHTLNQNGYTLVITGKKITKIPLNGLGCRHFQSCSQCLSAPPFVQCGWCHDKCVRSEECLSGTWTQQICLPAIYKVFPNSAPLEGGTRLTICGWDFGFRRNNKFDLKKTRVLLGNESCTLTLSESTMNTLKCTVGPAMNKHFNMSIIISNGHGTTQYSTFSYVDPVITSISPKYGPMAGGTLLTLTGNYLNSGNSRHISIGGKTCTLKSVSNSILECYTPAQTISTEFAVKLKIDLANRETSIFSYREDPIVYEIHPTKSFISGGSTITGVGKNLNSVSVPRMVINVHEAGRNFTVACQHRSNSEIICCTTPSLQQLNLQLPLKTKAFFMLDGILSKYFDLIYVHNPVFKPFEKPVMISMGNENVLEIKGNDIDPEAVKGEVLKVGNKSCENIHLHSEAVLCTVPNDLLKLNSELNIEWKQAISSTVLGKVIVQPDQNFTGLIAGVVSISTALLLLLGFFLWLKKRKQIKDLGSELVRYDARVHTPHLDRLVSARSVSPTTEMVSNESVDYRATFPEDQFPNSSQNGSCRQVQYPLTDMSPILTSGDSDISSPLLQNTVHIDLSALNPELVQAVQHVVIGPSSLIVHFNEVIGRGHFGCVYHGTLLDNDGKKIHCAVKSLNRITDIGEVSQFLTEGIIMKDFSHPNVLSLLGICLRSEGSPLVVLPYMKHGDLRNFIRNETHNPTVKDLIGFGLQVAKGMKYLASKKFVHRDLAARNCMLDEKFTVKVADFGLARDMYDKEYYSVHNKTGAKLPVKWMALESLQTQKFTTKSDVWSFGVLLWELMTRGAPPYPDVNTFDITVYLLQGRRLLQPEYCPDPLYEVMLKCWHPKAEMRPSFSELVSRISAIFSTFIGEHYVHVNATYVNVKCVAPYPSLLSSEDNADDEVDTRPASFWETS

Structure (SMILES)	IC50 [1]	inhibition at 1 µM [2]	inhibition at 3 µM [2]	IC50 [3]	IC50 (NPM-ALK)	inhibition at 1 µM [4]	inhibition at 3 µM [4]	melting point	inhibition at 1 µM (NPM-ALK)
CN1CCN(c2cc(-c3cnc4c(c3)N(Cc3c(F)ccc(F)c3Cl)CCN4)ccn2)CC1 [Example 190, 1-(2-Chloro-3,6-difluorobenzyl)-7-[2-(4-methylpiperazin-1-yl)pyridin-4-yl]-1,2,3,4-tetrahydropyrido[2,3-b]pyrazine]	< 100 nM	0 to 25%	0 to 25%	100 to 1000 nM	501 to 750 nM				
CC(c1c(F)ccc(F)c1Cl)N1CCNc2ncc(-c3ccc(N4CCN(C)CC4)nc3)cc21 (stereo not shown) [Example 177, 1-[1-(2-Chloro-3,6-difluorophenyl)ethyl]-7-[6-(4-methylpiperazin-1-yl)pyridin-3-yl]-1,2,3,4-tetrahydropyrido[2,3-b]pyrazine]	< 100 nM	0 to 25%	0 to 25%	1000 to 10000 nM	251 to 500 nM	26 to 50%	26 to 50%		
O=C(O)c1ccc(-c2cnc3c(c2)N(Cc2c(F)ccc(F)c2Cl)C(=O)CN3)cc1 [Example 6, 4-[1-(2-Chloro-3,6-difluorobenzyl)-2-oxo-1,2,3,4-tetrahydropyrido[2,3-b]pyrazin-7-yl]benzoic acid]	100 to 1000 nM			10000 to 100000 nM				> 300 °C	0 to 25%
O=C(c1ccc(-c2cnc3c(c2)N(Cc2cc(Cl)ccc2Cl)CCN3)cc1)N1CCC[C@H]1CN1CCCC1 [Example 159, S-{4-[1-(2,5-Dichlorobenzyl)-1,2,3,4-tetrahydropyrido[2,3-b]pyrazin-7-yl]phenyl}-{2-[(pyrrolidin-1-yl)methyl]pyrrolidin-1-yl}methanone]	< 100 nM	0 to 25%	0 to 25%	1000 to 10000 nM	251 to 500 nM	0 to 25%	0 to 25%		
O=C(NCCN1CCCC1)c1ccc(-c2cnc3c(c2)N(Cc2cc(F)ccc2F)C(=O)CN3)cc1 [Example 58, 4-[1-(2,5-Difluorobenzyl)-2-oxo-1,2,3,4-tetrahydropyrido[2,3-b]pyrazin-7-yl]-N-(2-pyrrolidin-1-yl-ethyl)benzamide]	100 to 1000 nM			10000 to 100000 nM				235 °C (dec.)	0 to 25%
O=C1CNc2ncc(-c3ccc(C(=O)N4CCC[C@H]4CN4CCCC4)cc3)cc2N1Cc1cc(F)ccc1F [Example 57, 1-(2,5-Difluorobenzyl)-7-[4-((S)-2-[(pyrrolidin-1-yl)methyl]pyrrolidine-1-carbonyl)phenyl]-3,4-dihydro-1H-pyrido[2,3-b]pyrazin-2-one]	100 to 1000 nM			100 to 1000 nM				125 °C	0 to 25%
CC(=O)N1CCN(c2cc(-c3cnc4c(c3)N(Cc3cc(Cl)ccc3C(F)(F)F)CCN4)ccn2)CC1 [Example 199, 1-[4-(4-{1-[5-Chloro-2-(trifluoromethyl)benzyl]-1,2,3,4-tetrahydro-pyrido[2,3-b]pyrazin-7-yl}pyridin-2-yl)piperazin-1-yl]ethanone]	< 100 nM			1000 to 10000 nM	≤ 250 nM			241 °C	

Second part, the compound after the results:

IC50 [1]	inhibition at 1 µM [2]	inhibition at 3 µM [2]	IC50 [3]	IC50 (NPM-ALK)	inhibition at 1 µM [4]	inhibition at 3 µM [4]	melting point	inhibition at 1 µM (NPM-ALK)	Structure (SMILES)
< 100 nM	0 to 25%	0 to 25%	100 to 1000 nM	≤ 250 nM	0 to 25%	0 to 25%			O=C(c1ccc(-c2cnc3c(c2)N(Cc2c(F)ccc(F)c2Cl)CCN3)cc1)N1CCC[C@H]1CN1CCCC1 [Example 100, {4-[1-(2-Chloro-3,6-difluorobenzyl)-1,2,3,4-tetrahydropyrido[2,3-b]pyrazin-7-yl]phenyl}-((S)-2-((pyrrolidin-1-yl)methyl)pyrrolidin-1-yl)methanone]
< 100 nM			100 to 1000 nM	251 to 500 nM			> 200 °C		O=C(c1ccc(-c2cnc3c(c2)N(Cc2cc(Cl)ccc2Cl)C(=O)CN3)cc1)N1CCC(N2CCCC2)CC1 [Example 156, 1-(2,5-Dichlorobenzyl)-7-[4-(4-(pyrrolidin-1-yl)piperidine-1-carbonyl)phenyl]-3,4-dihydro-1H-pyrido[2,3-b]pyrazin-2-one]
< 100 nM	0 to 25%	0 to 25%	1000 to 10000 nM	251 to 500 nM	0 to 25%	0 to 25%			O=C(c1ccc(-c2cnc3c(c2)N(Cc2c(Cl)cccc2Cl)CCN3)cc1)N1CCC[C@H]1CN1CCCC1 [Example 164, {4-[1-(2,6-Dichlorobenzyl)-1,2,3,4-tetrahydropyrido[2,3-b]pyrazin-7-yl]phenyl}-{2-[(pyrrolidin-1-yl)methyl]pyrrolidin-1-yl}methanone]
100 to 1000 nM			1000 to 10000 nM	751 to 1000 nM			271 °C		FC(F)(F)c1ccc(Cl)cc1CN1CCNc2ncc(-c3cn[nH]c3)cc21 [Example 200, 1-[5-Chloro-2-(trifluoromethyl)benzyl]-7-(1H-pyrazol-4-yl)-1,2,3,4-tetrahydro-pyrido[2,3-b]pyrazine]
< 100 nM			1000 to 10000 nM	≤ 250 nM			143 to 144 °C		O=C(c1ccc(-c2cnc3c(c2)N(Cc2cc(F)ccc2F)CCN3)cc1)N1CCC[C@H]1CN1CCCC1 [Example 65, {4-[1-(2,5-Difluorobenzyl)-1,2,3,4-tetrahydropyrido[2,3-b]pyrazin-7-yl]phenyl}-((S)-2-((pyrrolidin-1-yl)methyl)pyrrolidin-1-yl)methanone]
< 100 nM			1000 to 10000 nM	≤ 250 nM	0 to 25%	0 to 25%			O=C(c1ccc(-c2cnc3c(c2)N(Cc2cc(Cl)ccc2C(F)(F)F)CCN3)cc1)N1CCC(N2CCCC2)CC1 [Example 117, {4-[1-(5-Chloro-2-trifluoromethylbenzyl)-1,2,3,4-tetrahydropyrido[2,3-b]pyrazin-7-yl]phenyl}-(4-(pyrrolidin-1-yl)piperidin-1-yl)methanone]
< 100 nM			1000 to 10000 nM	≤ 250 nM			194 to 195 °C		CN1CCN(c2ncc(-c3cnc4c(c3)N(Cc3c(F)ccc(F)c3Cl)CCN4)cn2)CC1 [Example 106, 1-(2-Chloro-3,6-difluorobenzyl)-7-[2-(4-methylpiperazin-1-yl)-pyrimidin-5-yl]-1,2,3,4-tetrahydropyrido[2,3-b]pyrazine]
